pIC50: −log10 of the molar value. Like-named read-outs stand apart in the source and are kept apart here.
Target: T1, MCR-1 (Homo sapiens, UniProt Q01726)
T1 construct: expressed in transfected cells; host or cells: HEK 293
Test: Melanocortin receptor binding assay, competition with 125I-HP 467, HEK 293 cells expressing hMCR-1
Conditions: for % Disp. of 125I-HP 467 (first of duplicate) / % Disp. of 125I-HP 467 (second of duplicate): 10 μM isoquinoline compound; for % Disp. of 125I-HP 467 (first of duplicate): HEK 293 cells expressing MCR-1, duplicate 1; for % Disp. of 125I-HP 467 (second of duplicate): HEK 293 cells expressing MCR-1, duplicate 2; for % Disp. MC-1 10 μM: displacement of 125I-HP 467 at 10 μM isoquinoline compound; for pIC50: read-out: MC-1 IC50
Procedure, shortened: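 Test compounds compete on intact HEK 293 cells carrying hMCR-1 (2×10^4 per tube) or hMCR-4 (4×10^3 per tube), suspended in PBS, 10% calf serum, 1 mM CaCl2.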

[1] = competition with 125I-HP 467, HEK 293 cells expressing MCR-1
[2] = inhibition of binding of 125I-HP 467, HEK 293 cells expressing MCR-1

T1 sequence (Q01726 whole entry): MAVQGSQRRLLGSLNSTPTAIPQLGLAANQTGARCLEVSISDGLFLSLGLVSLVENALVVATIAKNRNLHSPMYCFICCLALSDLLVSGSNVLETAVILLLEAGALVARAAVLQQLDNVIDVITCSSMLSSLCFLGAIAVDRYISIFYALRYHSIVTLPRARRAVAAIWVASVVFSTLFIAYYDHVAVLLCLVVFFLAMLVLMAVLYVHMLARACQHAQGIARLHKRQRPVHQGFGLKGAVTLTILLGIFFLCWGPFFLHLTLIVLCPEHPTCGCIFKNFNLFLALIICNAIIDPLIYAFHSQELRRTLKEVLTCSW

## CNC(CN)CN1Cc2ccccc2C(CNC2CCCCC2)C1c1ccc2cccc(O)c2n1 (stereo not drawn) [TRG 2405-172]
  % Disp. of 125I-HP 467 (first of duplicate): 59.4%
  % Disp. of 125I-HP 467 (second of duplicate): 43.9%

## CNC(CN)CN1Cc2ccccc2C(CNC2CCCCC2)C1c1cc(Cl)cc(Cl)c1 (mixture of isomers) [TRG 2405-120]
First of duplicate
  % Disp. MC-1 10 μM: 52.4%
Second of duplicate
  % Disp. MC-1 10 μM: 54.3%

## NCCN1Cc2ccccc2C(CNC2CCCCC2)C1c1ccccc1CN (stereo not drawn) [TRG 2405-15]
First of duplicate
  % Disp. MC-1 10 μM: 23.5%
Second of duplicate
  % Disp. MC-1 10 μM: 52.5%

## CCNc1ccc(C2C(CNCCc3ccccc3)c3ccccc3CN2CCCCC(CN)NCC)cc1 (stereo not drawn) [TRG 2411-37]
[1]
  pIC50: 6.89

## CCNc1ccc(C2C(CNCCc3ccccc3)c3ccccc3CN2CCCC(CN)NC)cc1 (stereo not drawn) [TRG 2413-12]
[2]
  pIC50: 6.72

## NCCNC(CN)CCCCN1Cc2ccccc2C(CN)C1c1ccc(-c2ccccc2)cc1 (stereo not drawn) [TRG 2411-27]
[1]
  pIC50: 6.18

## CNC(CN)CN1Cc2ccccc2C(CNC2CCCCC2)C1c1ccc2c(c1)OCCO2 (stereo not drawn) [TRG 2405-93]
First of duplicate
  % Disp. MC-1 10 μM: 43.2%
Second of duplicate
  % Disp. MC-1 10 μM: 56.2%

## NCCN1Cc2ccccc2C(CNC2CCCCC2)C1c1ccc(Cl)c(Cl)c1 (stereo not drawn) [TRG 2405-26]
First of duplicate
  % Disp. MC-1 10 μM: 59.6%
Second of duplicate
  % Disp. MC-1 10 μM: 64.6%

## CCCCNc1ccc(C2C(CNC3CCCCC3)c3ccccc3CN2CCC[C@@H](CN)NC)cc1 (stereo partly drawn) [TRG 2411-203]
[2]
  pIC50: 6.77

## CNC(CN)CCCCN1Cc2ccccc2C(CNC2CCCCC2)C1c1cccc(Oc2ccccc2)c1 (stereo not drawn) [TRG 2405-230]
  % Disp. of 125I-HP 467 (first of duplicate): 89.2%
  % Disp. of 125I-HP 467 (second of duplicate): 84.2%

## CNC(CN)CCCCN1Cc2ccccc2C(CNC2CCCCC2)C1c1cc(C)c(O)c(C)c1 (stereo not drawn) [TRG 2405-212]
  % Disp. of 125I-HP 467 (first of duplicate): 54.8%
  % Disp. of 125I-HP 467 (second of duplicate): 45.8%

## CCCCNc1ccc(C2C(CN)c3ccccc3CN2CCCC(CN)NCc2ccc(OC)cc2)cc1 (stereo not drawn) [TRG 2409-226]
[1]
  pIC50: 7.00

## CNC(CN)CN1Cc2ccccc2C(CNC2CCCCC2)C1c1ccccc1OC (stereo not drawn) [TRG 2405-109]
First of duplicate
  % Disp. MC-1 10 μM: 34.7%
Second of duplicate
  % Disp. MC-1 10 μM: 44.7%

## CNC(CN)CCCCN1Cc2ccccc2C(CNC2CCCCC2)C1c1cccn1C (stereo not drawn) [TRG 2405-184]
  % Disp. of 125I-HP 467 (first of duplicate): 55.8%
  % Disp. of 125I-HP 467 (second of duplicate): 46%

## CNC(CN)CN1Cc2ccccc2C(CNC2CCCCC2)C1c1ccc(-c2ccccc2)cc1 (stereo not drawn) [TRG 2405-151]
First of duplicate
  % Disp. MC-1 10 μM: 61.5%
Second of duplicate
  % Disp. MC-1 10 μM: 57.6%

## CNC(CN)CCCCN1Cc2ccccc2C(CNC2CCCCC2)C1c1ccccn1 (stereo not drawn) [TRG 2405-201]
  % Disp. of 125I-HP 467 (first of duplicate): 61.1%
  % Disp. of 125I-HP 467 (second of duplicate): 43.4%

## CCNc1ccc(C2C(CNC3CCCCC3)c3ccccc3CN2CCCC(CN)NCc2ccc(OC)cc2)cc1 (stereo not drawn) [TRG 2411-171]
[2]
  pIC50: 6.82

## CCCOc1ccc(C2C(CNCCc3ccccc3)c3ccccc3CN2CCCC(CN)NCCc2ccccc2)cc1 (stereo not drawn) [TRG 2412-23]
[2]
  pIC50: 6.46

## CNC(CN)CCCCN1Cc2ccccc2C(CNC2CCCCC2)C1c1ccc(OC)c(F)c1 (stereo not drawn) [TRG 2405-220]
  % Disp. of 125I-HP 467 (first of duplicate): 67.3%
  % Disp. of 125I-HP 467 (second of duplicate): 60.6%

## CNC(CN)CCCCN1Cc2ccccc2C(CNC2CCCCC2)C1c1ccc2ccccc2c1 (stereo not drawn) [TRG 2405-200]
  % Disp. of 125I-HP 467 (first of duplicate): 83.6%
  % Disp. of 125I-HP 467 (second of duplicate): 81%

## CNC(CN)CCCCN1Cc2ccccc2C(CNC2CCCCC2)C1c1ccc(F)c(F)c1 (mixture of isomers) [TRG 2405-207]
  % Disp. of 125I-HP 467 (first of duplicate): 65%
  % Disp. of 125I-HP 467 (second of duplicate): 65.5%

## COc1ccc(C2C(CNC3CCCCC3)c3ccccc3CN2CCN)cc1C (stereo not drawn) [TRG 2405-46]
First of duplicate
  % Disp. MC-1 10 μM: 46.8%
Second of duplicate
  % Disp. MC-1 10 μM: 40.3%

## NCCN1Cc2ccccc2C(CNC2CCCCC2)C1c1ccc2ccccc2n1 (stereo not drawn) [TRG 2405-22]
First of duplicate
  % Disp. MC-1 10 μM: 29.7%
Second of duplicate
  % Disp. MC-1 10 μM: 43.4%

## CCCOc1ccc(C2C(CNCCc3ccccc3)c3ccccc3CN2CCCCC(CN)NC)cc1 (stereo not drawn) [TRG 2412-7]
[2]
  pIC50: 6.38

## CNC(CN)CCCCN1Cc2ccccc2C(CNC2CCCCC2)C1c1ccccc1 (stereo not drawn) [TRG 2405-181]
  % Disp. of 125I-HP 467 (first of duplicate): 57.3%
  % Disp. of 125I-HP 467 (second of duplicate): 64.4%

## CCCCNc1ccc(C2C(CNC3CCCCC3)c3ccccc3CN2CCCC(CN)NCCc2ccccc2)cc1 (stereo not drawn) [TRG 2411-207]
[2]
  pIC50: 6.72

## CCOc1ccc(C2C(CNCCc3ccccc3)c3ccccc3CN2CCCC(CN)NCCc2ccccc2)cc1 (stereo not drawn) [TRG 2412-20]
[2]
  pIC50: 6.82

## CCCCOc1ccc(C2C(CNCCc3ccccc3)c3ccccc3CN2CCCCC(CN)NCCc2ccccc2)cc1 (stereo not drawn) [TRG 2412-11]
[2]
  pIC50: 6.09

## CCCCNC(CN)CCCN1Cc2ccccc2C(CNC2CCCCC2)C1c1ccc(NCC)cc1 (stereo not drawn) [TRG 2411-165]
[2]
  pIC50: 7.05

## NCCN1Cc2ccccc2C(CNC2CCCCC2)C1c1ccnc2ccccc12 (stereo not drawn) [TRG 2405-75]
First of duplicate
  % Disp. MC-1 10 μM: 38.9%
Second of duplicate
  % Disp. MC-1 10 μM: 17.6%

## CCNc1ccc(C2C(CN)c3ccccc3CN2CCCC(CN)NCCc2ccc3ccccc3c2)cc1 (mixture of isomers) [TRG 2411-185]
[2]
  pIC50: 7.00

## CNC(CN)CCCCN1Cc2ccccc2C(CNC2CCCCC2)C1c1c(F)cccc1F (stereo not drawn) [TRG 2405-191]
  % Disp. of 125I-HP 467 (first of duplicate): 41.2%
  % Disp. of 125I-HP 467 (second of duplicate): 47.3%

## NCCN1Cc2ccccc2C(CNC2CCCCC2)C1c1ccc(F)c(F)c1 (stereo not drawn) [TRG 2405-27]
First of duplicate
  % Disp. MC-1 10 μM: 52.1%
Second of duplicate
  % Disp. MC-1 10 μM: 43.8%

## COc1ccc(C2C(CNC3CCCCC3)c3ccccc3CN2CCN)cc1 (stereo not drawn) [TRG 2405-60]
First of duplicate
  % Disp. MC-1 10 μM: 41.4%
Second of duplicate
  % Disp. MC-1 10 μM: 42.4%

## CNC(CN)CN1Cc2ccccc2C(CNC2CCCCC2)C1c1cccc(Oc2ccc(Cl)c(Cl)c2)c1 (stereo not drawn) [TRG 2405-123]
First of duplicate
  % Disp. MC-1 10 μM: 47.9%
Second of duplicate
  % Disp. MC-1 10 μM: 55.6%

## CCCCOc1ccc(C2C(CNCCc3ccccc3)c3ccccc3CN2CCCC(CN)NCCc2ccccc2)cc1 (stereo not drawn) [TRG 2412-26]
[2]
  pIC50: 6.70

## CNC(CN)CN1Cc2ccccc2C(CNC2CCCCC2)C1c1cccs1 (stereo not drawn) [TRG 2405-113]
First of duplicate
  % Disp. MC-1 10 μM: 40%
Second of duplicate
  % Disp. MC-1 10 μM: 58.5%

## CNC(CN)CCCCN1Cc2ccccc2C(CNC2CCCCC2)C1c1cnc2ccccc2c1 (stereo not drawn) [TRG 2405-232]
  % Disp. of 125I-HP 467 (first of duplicate): 36.1%
  % Disp. of 125I-HP 467 (second of duplicate): 34.2%

## CCNc1ccc(C2C(CNC3CCCCC3)c3ccccc3CN2CCCCC(CN)NCC)cc1 (stereo not drawn) [TRG 2411-49]
[1]
  pIC50: 6.66

## NCCN1Cc2ccccc2C(CNC2CCCCC2)C1c1ccoc1 (stereo not drawn) [TRG 2405-42]
First of duplicate
  % Disp. MC-1 10 μM: 43.6%
Second of duplicate
  % Disp. MC-1 10 μM: 40.7%

## CNC(CN)CN1Cc2ccccc2C(CNC2CCCCC2)C1c1ccc(F)cc1 (stereo not drawn) [TRG 2405-155]
First of duplicate
  % Disp. MC-1 10 μM: 52.3%
Second of duplicate
  % Disp. MC-1 10 μM: 55.6%

## CCCCNc1ccc(C2C(CNCCc3ccccc3)c3ccccc3CN2CCCCC(CN)NC)cc1 (stereo not drawn) [TRG 2411-73]
[1]
  pIC50: 6.72

## CCCCNc1ccc(C2C(CN)c3ccccc3CN2CCCCC(CN)NCC)cc1 (stereo not drawn) [TRG 2411-101]
[1]
  pIC50: 7.00

## CNC(CN)CN1Cc2ccccc2C(CNC2CCCCC2)C1c1nccs1 (stereo not drawn) [TRG 2405-180]
  % Disp. of 125I-HP 467 (first of duplicate): 72%
  % Disp. of 125I-HP 467 (second of duplicate): 64.6%

## NCC(CCCN1Cc2ccccc2C(CNC2CCCCC2)C1c1ccc(-c2ccccc2)cc1)N1CCCC1 (stereo not drawn) [TRG 2411-131]
[1]
  pIC50: 6.64

## CCCCNc1ccc(C2C(CNCCc3ccccc3)c3ccccc3CN2CCCC(N)CN)cc1 (stereo not drawn) [TRG 2411-188]
[2]
  pIC50: 6.89

## NCCN1Cc2ccccc2C(CNC2CCCCC2)C1c1cc(Cl)cc(Cl)c1 (stereo not drawn) [TRG 2405-30]
First of duplicate
  % Disp. MC-1 10 μM: 54.7%
Second of duplicate
  % Disp. MC-1 10 μM: 52.8%

## CNC(CN)CCCCN1Cc2ccccc2C(CNC2CCCCC2)C1c1ccc(CN)cc1 (stereo not drawn) [TRG 2405-244]
  % Disp. of 125I-HP 467 (first of duplicate): 29.7%
  % Disp. of 125I-HP 467 (second of duplicate): 22.5%

## COCCNC(CN)CCCN1Cc2ccccc2C(CNCCc2ccccc2)C1c1ccc(-c2ccccc2)cc1 (stereo not drawn) [TRG 2411-123]
[1]
  pIC50: 5.81

## CNC(CN)CCCCN1Cc2ccccc2C(CNC2CCCCC2)C1c1ccccc1F (stereo not drawn) [TRG 2405-196]
  % Disp. of 125I-HP 467 (first of duplicate): 69.1%
  % Disp. of 125I-HP 467 (second of duplicate): 64.6%

## NCCN1Cc2ccccc2C(CNC2CCCCC2)C1c1nccs1 (stereo not drawn) [TRG 2405-90]
First of duplicate
  % Disp. MC-1 10 μM: 48.4%
Second of duplicate
  % Disp. MC-1 10 μM: 45.9%

## CNC(CN)CN1Cc2ccccc2C(CNC2CCCCC2)C1c1ccc(OC)c(F)c1 (stereo not drawn) [TRG 2405-130]
First of duplicate
  % Disp. MC-1 10 μM: 48.9%
Second of duplicate
  % Disp. MC-1 10 μM: 43.3%

## Cc1ccc(C2C(CNC3CCCCC3)c3ccccc3CN2CCN)o1 (stereo not drawn) [TRG 2405-79]
First of duplicate
  % Disp. MC-1 10 μM: 17.3%
Second of duplicate
  % Disp. MC-1 10 μM: 26.3%

## CCCCNc1ccc(C2C(CNCCc3ccccc3)c3ccccc3CN2CCCC(CN)NCc2ccc(Cl)cc2)cc1 (stereo not drawn) [TRG 2411-197]
[2]
  pIC50: 7.10

Reference: patent US6608082B1, “Treatment of erectile dysfunction using isoquinoline compound melanocortin receptor ligands” (Lion Bioscience AG, priority 1998, dated 2003)
